Experimental data: patent US20130096054A1, “LATENT HUMAN IMMUNODEFICIENCY VIRUS REACTIVIATION” (priority 2010, published 2013)
“And” between values parts separate entries of the source, which are not always exact repeats. Equal entries are not always repeated. *1 amine or outer side, *2 acyl side, *3 side chain or, on linkers, in order; H or OH if unused. Where a SMILES comes first, the peptide text is derived from it. Bridges are numbered along the chain shown (N, C = ends). Roman numbers before positions name the chains, in order. [ ]: non-standard residue; d: D form. Actinocin(9to1) = Cc1c2oc3c(C)ccc(C(=O)[*:1])c3nc-2c(C(=O)[*:2])c(N)c1=O; NMeV = CN[C@H](C(=O)O)C(C)C; Sar = CNCC(=O)O

How the values were obtained:
[1] = test system: chronically actively infected T cell lines JNLG#35 and JNLG#44; test: Active HIV-1 transcription in chronically actively infected GFP-reporter T cells (GFP MCF); format: cell-based; settings: 48 hours after addition
Method: Changes in HIV-1 transcription levels were determined after 48 hours by measuring GFP mean channel fluorescence intensity (GFP MCF). GFP MCF was plotted over the drug concentration for dactinomycin (FIG. 12A), the DNA intercalators daunorubicin (DM) (FIG. 12B) and rebeccamycin (RM) (FIG. 12C), as well as the transcription inhibitors ICRF-193 (FIG. 12D), DRB (FIG. 12E) and α-amanitin (FIG. 12F). The size of symbols indicates the respective cell viability in the sample (size range adjusted to 5-95%).
For this purpose, each of the compounds was titrated over a relevant range of concentrations on two chronically actively infected T cell lines (JNLG#35 and JNLG#44). These clonal cell lines are infected with a GFP-reporter virus. Forty eight hours after addition of the compounds, the effect of each compound on HIV-1 transcription was determined by flow cytometric analysis quantifying GFP mean channel fluorescence intensity (MCF).

[2] = test system: latently HIV-1 infected EF7 cells; test: HIV-1 reactivation in latently HIV-1 infected EF7 T cells (converse sense integration); format: cell-based; settings: TNF-α after 4 ng/ml dactinomycin for 18 hours
Method: FIGS. 13A-B show the effect of dactinomycin on latent infection as a function of the orientation of integration relative to the direction of host-gene transcription. HIV-1 can integrate in the same transcriptional orientation as the host-gene or in the converse sense. Two latently HIV-1 infected T cell lines, which were determined to have HIV-1 integrated in the same sense orientation (CA5 cells) (FIG. 13A) and in the converse sense orientation (EF7 cells) (FIG. 13B) were used. For either cell line, the host-gene name, the position of integration and the chromosome number is given. For either T cell line, reactivation levels achieved by TNF-α treatment alone or by TNF-α stimulation following pretreatment with 4 ng/ml dactinomycin for 18 hours are shown. Reactivation levels were determined using flow cytometric analysis for GFP expression. The gray dotted line represents maximum achievable reactivation levels using PMA.

[3] = test system: latently HIV-1 infected CA5 T cells
Method: CA5 T cells were pretreated with increasing concentrations of dactinomycin (DM) (FIG. 11A), the DNA intercalator daunorubicin (DR) (FIG. 11B), or the transcription inhibitors DRB (FIG. 11 C) and α-amanitin (FIG. 11D) (concentrations indicated). The cells were then left unstimulated (white circles) or activated with a sub-optimal concentration of HRF (black circles). Reactivation levels were determined as the percentage of GFP-positive cells 24 hours after stimulation. Viability of the cells correlates with the size of the symbol (size range adjusted to 5-95%).
Infection levels in the cell cultures were monitored by flow cytometric analysis of EGFP expression. Flow cytometric analysis was performed on a GUAVA EasyCyte (Millipore; Billerica, Mass.), or a LSRII (Becton & Dickinson; Franklin Lakes, N.J.).
Bacteria from various sources were isolated on TSA II agar plates containing 5% sheep blood. Bacterial isolates were then grown in RPMI 1640 medium supplemented with 10% FBS. After two days of incubation at 37° C. bacteria were pelleted and resuspended in RPMI medium to an optical density (OD600) of 8, aliquoted and frozen at −80° C. Unless otherwise indicated, Massilia timonae was grown in RPMI 1640 medium supplemented with 10% FBS. Typically, medium was inoculated with Massilia timonae from frozen stocks to an OD600 of 0.01. After 48 hours at 37° C., the culture was centrifuged at 3200 g to separate bacteria from the culture medium. Bacteria were resuspended in fresh medium to an OD600 of 8 and frozen to be used as references and stock cultures. The supernatant was then centrifuged at 10,000 g for 20 minutes and sterilized by passage through an 0.2 μm PVDF filter with low protein binding ability. HRF activity was determined by its ability to reactivate latent HIV-1 infection in CA5 cells. Only supernatants of which 6 μl reactivated infection in at least 60% of CA5 cells were used to study HRF properties.
(§1) Infection levels in the cell cultures were monitored by flow cytometric (FCM) analysis of GFP expression. FCM analysis was performed on a GUAVA EasyCyte (GUAVA Technologies, Inc.; Millipore; Billerica, Mass.) and a BD FACSCalibur or a LSR11 (Becton & Dickinson; Franklin Lakes, N.J.). Cell sorting experiments were performed using a FACSAria™ Flow Cytometer (Becton&Dickinson). Data analysis was performed using either CellQuest (Becton&Dickinson) or GUAVA Express (GUAVA Technologies, Inc.).
To identify the optimal concentration of dactinomycin, CA5 T cells were pretreated with increasing concentrations of dactinomycin (0.0001 and 1 μg/ml), and then left untreated or stimulated with a sub-optimal concentration of HRF or TNF-α. […] Twenty four hours after activator addition, levels of HIV-1 reactivation were determined as the percentage of GFP-positive cells using flow cytometric analysis, which allowed for the simultaneous determination of cell viability.

[4] = test system: latently HIV-1 infected J89GFP T cells; test: HIV-1 reactivation in latently HIV-1 infected J89GFP T cells (flow cytometry / HTS); format: cell-based
Method: as §1

[5] = test system: latently HIV-2 infected J2574 reporter T cells (HIV-2 7312A); test: Reactivation of latent HIV-2 infection in J2574 reporter T cells; format: cell-based
Method: J2574 reporter T cells were infected with HIV-2 7312A and a latently infected cell population was established (>90% latently infected cells). The cell population was then pretreated with varying concentrations of dactinomycin (0-8 ng/ml) for 18 hours and then either left untreated (C) or stimulated with a sub-optimal dose of HRF, which by itself triggered reactivation in 10% of the cells. Reactivation levels were determined 24 hours post HRF activation by quantifying the level of GFP-positive cells using flow cytometric analysis.
J2574 reporter T cells were generated by retrovirally transducing Jurkat T cells with a HIV-1 reporter construct (p2574) in which the HIV-1 LTR controls the expression of GFP. The HIV-1 LTR and the GFP gene are separated by a 2,500 base pair (bp) spacer element. Lentiviral particles were produced by transfecting 293T cells with p2574 and supplying gag-pol-rev-tat in trans. VSV-G was used as viral envelope protein. Following lentiviral transduction of Jurkat cells, all cells that spontaneously expressed GFP were removed by cell sorting. The GFP-negative population was then activated with PMA to identify all cells that would harbor an inducible LTR-GFP-LTR integration event. Cells that turned GFP-positive following stimulation were again selected by cell sorting. GFP expression in this population ceased after a few days leaving a population of GFP-negative reporter cells. The amount of founder cells for this population is calculated to represent >50,000 individual integration events.
To determine the ability of dactinomycin to prime a latent HIV-2 infection, a latently HIV-2 infected population of GFP reporter T cells were tested. Briefly, to create the latent HIV-2 infected population, J2574 reporter cells were infected with HIV-2 7312A and a population of latently HIV-2 infected cells was generated by removing the actively infected, GFP-positive cells using a fluorescence activated cell sorter.

[6] = test system: HIV-1 LTR (integrated LTR-EGFP construct, NOMI cells); test: Tat-independent activation of integrated LTR-GFP construct in NOMI reporter T cells; format: cell-based; settings: 24 hours
Method: (§2) FIGS. 6A-6C show HRF triggers suboptimal functional induction of NF-κB dependent gene expression. […] The HIV-1 reactivating kinetics were determined by stimulating CA5 T cells with optimal concentrations of HRF, phorbol 12-myristate 13-acetate (PMA) and tumor necrosis factor-α (TNF-α) and analyzing HIV-1 reactivation as a function of EGFP-expression over a period of 48 hours. Data for all agents are depicted as the percentage of EGFP-positive cells in the total cell population. […] To test the ability of HRF to mediate Tat-independent activation of the HIV-1 LTR, NOMI cells (HIV-1 reporter cell line with an integrated LTR-EGFP construct) were stimulated with increasing concentrations of PMA (0.01-10 ng/ml), TNF-α (0.003-30 μg/ml) and HRF supernatant (0.3-100 μl). The level of LTR-induction was then measured as EGFP-expression detectable after 24 hours as determined by flow cytometric analysis. Arrows indicate the concentrations at which the respective stimulus would have triggered full HIV-1 reactivation in the latently HIV-1 infected CA5 T cell line. […] 293T cells were transfected with several NF-κB dependent promoter constructs and then stimulated with either TNF-α (10 μg/ml) or HRF (25 μl). Promoter induction was measured as total EGFP expression. […]

[7] = test system: NF-κB dependent promoters in 293T cells; test: NF-κB dependent promoter GFP constructs transfected into 293T cells; format: cell-based
Method: as §2

[8] = molecular target: T1, positive transcription elongation factor (P-TEFb), a complex of CDK9 and Cyclin T1 (UniProt P50750 1-372; O60563 1-726); test: glycerol gradient (10-45%) sedimentation of J89GFP cell lysates, Western blot of fractions with anti-CDK9 and anti-HEXIM-1
T1 construct: also called CDK9/CycT1; small complex
Method: Each gradient fraction was separated on a 10% SDS-PAGE gel and transferred by Western blot. […] Band densities were determined using ImageJ and are presented as relative band density. […] Band densities were determined using ImageJ and are presented as relative band density.
Ten million J89GFP or CA5 T cells were left untreated or treated with 0.004 μg/mL, […] 1 μg/mL dactinomycin for 18 hours or 1 hour, respectively. Cells were washed twice with cold PBS, then lysed for 30 minutes on ice in lysis buffer (0.5% TritonX100, 20 mM HEPES (pH7.9), 150 mM NaCl, 20 mM KCl, 2 mM MgCl2, 1 mM DTT, 0.2 mM EDTA, and protease inhibitor cocktail (P8340; SIGMA)), followed by centrifugation at 14,000 rpm for 10 minutes. The same amount of protein lysate was fractionated on 5 ml of a 10-45% glycerol gradient in lysis buffer in a SW-Ti55 rotor (Beckman Coulter; Miami, Fla.) for 16 hours at 45,000 rpm. Fractions were resolved on 10% SDS-PAGE and transferred to polyvinylidene fluoride membrane. The antibodies used for Western blotting were rabbit anti-Cdk9 (sc-484; Santa Cruz Biotechnology; Santa Cruz, Calif.) and rabbit anti-HEXIM1 (ab25388; Abcam; Cambridge, Mass.), respectively. […]

T1 sequence (P50750 whole entry, chain 1 of 2): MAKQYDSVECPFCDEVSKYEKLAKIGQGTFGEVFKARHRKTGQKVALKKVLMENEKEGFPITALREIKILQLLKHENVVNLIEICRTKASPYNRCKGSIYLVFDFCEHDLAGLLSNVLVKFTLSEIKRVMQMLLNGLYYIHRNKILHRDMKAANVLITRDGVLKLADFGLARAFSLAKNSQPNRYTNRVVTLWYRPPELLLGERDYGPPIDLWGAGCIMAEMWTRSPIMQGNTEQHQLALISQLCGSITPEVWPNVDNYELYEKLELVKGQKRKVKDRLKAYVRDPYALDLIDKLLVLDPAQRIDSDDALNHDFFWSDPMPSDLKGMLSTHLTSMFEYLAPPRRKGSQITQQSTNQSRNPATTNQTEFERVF
T1 sequence (O60563 whole entry, chain 2 of 2): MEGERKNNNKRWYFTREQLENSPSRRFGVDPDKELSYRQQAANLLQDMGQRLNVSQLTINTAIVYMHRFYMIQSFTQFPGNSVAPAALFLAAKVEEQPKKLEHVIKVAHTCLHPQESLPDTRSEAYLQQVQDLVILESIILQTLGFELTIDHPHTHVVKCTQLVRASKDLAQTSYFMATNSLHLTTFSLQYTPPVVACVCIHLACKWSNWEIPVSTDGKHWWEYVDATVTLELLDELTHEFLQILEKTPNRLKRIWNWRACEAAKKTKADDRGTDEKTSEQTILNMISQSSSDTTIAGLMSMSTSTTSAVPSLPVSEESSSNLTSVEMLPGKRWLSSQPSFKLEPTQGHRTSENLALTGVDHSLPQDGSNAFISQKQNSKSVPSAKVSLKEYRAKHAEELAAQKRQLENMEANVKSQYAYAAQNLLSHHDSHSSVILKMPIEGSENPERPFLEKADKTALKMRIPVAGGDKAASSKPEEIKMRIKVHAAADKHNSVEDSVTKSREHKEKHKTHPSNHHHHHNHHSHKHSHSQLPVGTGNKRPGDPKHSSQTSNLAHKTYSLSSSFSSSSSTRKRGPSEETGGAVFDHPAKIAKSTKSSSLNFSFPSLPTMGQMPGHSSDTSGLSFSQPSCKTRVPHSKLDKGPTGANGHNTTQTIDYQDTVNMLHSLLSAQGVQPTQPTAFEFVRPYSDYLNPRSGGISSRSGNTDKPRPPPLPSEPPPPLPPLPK

Cc1c2oc3c(C)ccc(C(=O)N[C@@H]4C(=O)N[C@H](C(C)C)C(=O)N5CCC[C@H]5C(=O)N(C)CC(=O)N(C)[C@@H](C(C)C)C(=O)O[C@@H]4C)c3nc-2c(C(=O)N[C@@H]2C(=O)N[C@H](C(C)C)C(=O)N3CCC[C@H]3C(=O)N(C)CC(=O)N(C)[C@@H](C(C)C)C(=O)O[C@@H]2C)c(N)c1=O [dactinomycin] (I: T[dV]P[Sar][NMeV] / II: T[dV]P[Sar][NMeV]; ester I:1-I:C, II:1-II:C; linker I:N-II:N via Actinocin(9to1))
effect on active HIV-1 infection / transcription (GFP MCF) [1]: without boosting active HIV-1 infection | effect on active HIV-1 infection / transcription (GFP MCF) ([1]; listed as Dactinomycin): did not boost active infection, but rather inhibited active infection | priming effect, virus integrated in converse transcriptional orientation [2]: exerted its priming effect in each integration scenario | concentration at which it starts to act as an inhibitor of HIV-1 expression and reactivation (onset of drug toxicities) [3]: ≥ 10 ng/mL | priming effects with low concentrations of TNF-α or PMA as reactivating agents [3]: also observed | concentration of optimal priming activity ([3]; 18 hours pretreatment, then sub-optimal HRF or TNF-α): about 4 ng/ml and ~3.18 nM | priming effect, virus integrated in same transcriptional orientation as host-gene ([3]; TNF-α after 4 ng/ml dactinomycin for 18 hours): exerted its priming effect in each integration scenario | priming effect on HIV-1 reactivation by sub-optimal dose of HRF ([3]; pretreatment with increasing concentrations, then sub-optimal HRF): strong priming effect | lowest concentration at which a priming effect was observed ([3]; then sub-optimal HRF or TNF-α): 0.5 ng/mL | priming for reactivation in combination with sub-optimal TNF-α ([4]; 18 hours pretreatment): potently primed latent HIV-1 infection for reactivation | HIV-1 reactivating capacity by itself ([4]; no activator): did not exhibit HIV-1 reactivating capacity by itself | concentration range of efficient priming of latent HIV-2 infection ([5]; 18 hours pretreatment, then sub-optimal HRF): 2 to 8 ng/mL | HIV-2 reactivation levels on costimulation ([5]; dactinomycin pretreatment plus sub-optimal HRF): up to 90%

TNF-α
Tat-independent activation of integrated LTR-GFP construct (GFP expression) [6]: stimulated Tat-independent activation of the integrated LTR-GFP construct | GFP expression driven by NF-κB responsive promoter constructs (IL-8, TNF-α, HIV-1 LTR, three consensus NF-κB sites) ([7]; TNF-α 10 μg/ml or HRF 25 μl): efficiently induced | GFP expression of construct under murine stem cell virus LTR (no NF-κB responsive element) ([7]; control construct): Neither TNF-α nor HRF influenced GFP expression | reactivation ([3]; sub-optimal dose of TNF-α alone): 32%

CCCCCCCCCCCCCC(=O)O[C@@H]1[C@@H](C)[C@@]2(O)[C@@H](C=C(CO)C[C@]3(O)C(=O)C(C)=C[C@@H]23)[C@@H]2C(C)(C)[C@]12OC(C)=O [PMA, 13-phorbol-12-myristate acetate]
Tat-independent activation of integrated LTR-GFP construct (GFP expression) [6]: stimulated Tat-independent activation of the integrated LTR-GFP construct | maximum achievable HIV-1 reactivation levels ([4]; 10 ng/ml PMA, three J89GFP populations): 90±3% | cells latently infected as revealed by PMA stimulation ([5]; GFP-negative sorted population): > 90%

B1: HEXIM-1 (other, UniProt O94992 1-359, looked up)
chain: MAEPFLSEYQHQPQTSNCTGAAAVQEELNPERPPGAEERVPEEDSRWQSRAFPQLGGRPGPEGEGSLESQPPPLQTQACPESSCLREGEKGQNGDDSSAGGDFPPPAEVEPTPEAELLAQPCHDSEASKLGAPAAGGEEEWGQQQRQLGKKKHRRRPSKKKRHWKPYYKLTWEEKKKFDEKQSLRASRIRAEMFAKGQPVAPYNTTQFLMDDHDQEEPDLKTGLYSKRAAAKSDDTSDDDFMEEGGEEDGGSDGMGGDGSEFLQRDFSETYERYHTESLQNMSKQELIKEYLELEKCLSRMEDENNRLRLESKRLGGDDARVRELELELDRLRAENLQLLTENELHRQQERAPLSKFGD
binding result [8]: binds
